According to the CheMixHub drug solubility set:

Assay: xn = mol fraction of the nth substance listed, in the solute-free solvent

CN1CCC(N(Cc2cccs2)c2ccccc2)CC1 + CN(C)C=O + O
solubility (g/100 g solution)
Settings	278.15 K	283.15 K	288.15 K	293.15 K	298.15 K	303.15 K	308.15 K	313.15 K	318.15 K	323.15 K
x2 = 0.02666	0.234	0.248	0.263	0.283	0.308	0.336	0.367	0.396	0.432	0.473
x2 = 0.05806	0.678	0.715	0.75	0.8	0.862	0.931	1.01	1.08	1.16	1.26
x2 = 0.09556	1.25	1.32	1.38	1.47	1.58	1.7	1.83	1.95	2.11	2.27
x2 = 0.1412	1.74	1.84	1.95	2.07	2.23	2.4	2.59	2.76	2.98	3.21
x2 = 0.1978	2.05	2.19	2.34	2.51	2.71	2.93	3.16	3.38	3.65	3.96
x2 = 0.27	2.31	2.46	2.65	2.87	3.12	3.38	3.66	3.93	4.27	4.64
x2 = 0.3652	2.53	2.75	2.99	3.25	3.54	3.83	4.16	4.52	4.89	5.35
x2 = 0.4965	2.78	3.02	3.28	3.6	3.95	4.31	4.69	5.09	5.53	6.09
x2 = 0.6893	2.78	3.07	3.4	3.73	4.13	4.53	4.98	5.42	5.95	6.54

Cc1ccc2cc(Br)ccc2n1 + CN(C)C=O + O
solubility (g/100 g solution)
Settings	278.15 K	283.15 K	288.15 K	293.15 K	298.15 K	303.15 K	308.15 K	313.15 K	318.15 K	323.15 K
x2 = 0.02666	0.101	0.115	0.132	0.15	0.17	0.192	0.22	0.251	0.284	0.323
x2 = 0.05806	0.422	0.471	0.529	0.591	0.66	0.737	0.832	0.936	1.05	1.18
x2 = 0.09556	0.867	0.964	1.07	1.19	1.32	1.47	1.66	1.86	2.08	2.34
x2 = 0.1412	1.17	1.3	1.45	1.61	1.79	2	2.27	2.55	2.86	3.23
x2 = 0.1978	1.23	1.39	1.57	1.77	1.98	2.23	2.52	2.87	3.25	3.69
x2 = 0.27	1.27	1.43	1.63	1.85	2.11	2.39	2.74	3.13	3.57	4.1
x2 = 0.3652	1.38	1.58	1.8	2.04	2.31	2.62	2.99	3.45	3.97	4.61
x2 = 0.4965	1.52	1.77	2.05	2.31	2.62	3.01	3.5	4.08	4.7	5.46
x2 = 0.6893	1.67	1.91	2.2	2.61	2.99	3.44	3.98	4.63	5.36	6.25

O=C1CCC(C(=O)N2CSCC2C(=O)O)N1 (centres undefined) + CO + CC(C)=O
solubility (g/100 g solution)
Settings	278.15 K	283.15 K	288.15 K	293.15 K	298.15 K	303.15 K	308.15 K	313.15 K	318.15 K	323.15 K
x2 = 0.1676	0.03	0.0418	0.06	0.08	0.115	0.159	0.227	0.34	0.497	0.708
x2 = 0.3118	0.045	0.0699	0.101	0.147	0.241	0.346	0.532	0.773	1.12	1.54
x2 = 0.4372	0.0669	0.0956	0.145	0.224	0.317	0.432	0.62	–	1.24	1.72
x2 = 0.5471	0.74	0.834	0.94	1.08	1.19	1.33	1.48	1.67	1.88	2.12
x2 = 0.6444	0.813	0.929	1.04	1.2	1.37	1.58	1.81	2.07	2.37	2.73
x2 = 0.7311	0.964	1.09	1.21	1.38	1.56	1.76	1.99	2.24	2.54	2.94
x2 = 0.8087	1.07	1.14	1.29	1.48	1.69	1.92	2.19	2.49	2.82	3.21
x2 = 0.8788	1.02	1.15	1.28	1.48	1.69	1.92	2.18	2.49	2.81	3.18
x2 = 0.9422	0.998	1.13	1.25	1.42	1.64	1.87	2.14	2.43	2.77	3.13

O=C1CCC(C(=O)N2CSCC2C(=O)O)N1 (centres undefined) + CO + CCCCOC(C)=O
solubility (g/100 g solution)
Settings	278.15 K	283.15 K	288.15 K	293.15 K	298.15 K	303.15 K	308.15 K	313.15 K	318.15 K	323.15 K
x2 = 0.2871	0.0109	0.0159	0.0239	0.0358	0.0528	0.0759	0.105	0.152	0.213	0.292
x2 = 0.4754	0.017	0.025	0.0349	0.0468	0.0628	0.0977	0.147	0.219	0.325	0.472
x2 = 0.6084	0.0271	0.0398	0.0597	0.0838	0.122	0.155	0.227	0.342	0.501	0.724
x2 = 0.7073	0.0401	0.065	0.104	0.162	0.249	0.378	0.564	0.832	1.2	1.68
x2 = 0.7838	0.0447	0.0729	0.117	0.184	0.287	0.432	0.65	0.964	1.4	1.95
x2 = 0.8446	0.0601	0.0995	0.148	0.234	0.363	0.542	0.949	1.23	1.59	2.33
x2 = 0.8943	0.635	0.752	0.898	0.997	1.19	1.36	1.59	1.88	2.15	2.57
x2 = 0.9355	0.674	0.824	0.969	1.11	1.26	1.5	1.8	2.04	2.4	2.85
x2 = 0.9703	0.793	0.937	1.12	1.28	1.52	1.75	2.06	2.36	2.82	3.31

Cc1ccc2cc(Br)ccc2n1 + CO + O
solubility (g/100 g solution)
Settings	278.15 K	283.15 K	288.15 K	293.15 K	298.15 K	303.15 K	308.15 K	313.15 K	318.15 K	323.15 K
x2 = 0.05881	0.0126	0.0148	0.0176	0.0206	0.0242	0.0281	0.0331	0.0386	0.045	0.0524
x2 = 0.1233	0.0194	0.0228	0.0268	0.0314	0.0369	0.0428	0.0502	0.0586	0.0682	0.0793
x2 = 0.1942	0.0298	0.0349	0.0409	0.0477	0.056	0.0651	0.0761	0.0886	0.103	0.12
x2 = 0.2727	0.0444	0.052	0.0607	0.0706	0.0828	0.0963	0.112	0.131	0.152	0.177
x2 = 0.3599	0.0588	0.0705	0.0835	0.0981	0.115	0.135	0.156	0.18	0.21	0.245
x2 = 0.4576	0.0792	0.095	0.112	0.133	0.155	0.18	0.21	0.245	0.283	0.331
x2 = 0.5675	0.097	0.117	0.14	0.166	0.195	0.228	0.266	0.311	0.361	0.421
x2 = 0.6923	0.118	0.142	0.169	0.199	0.233	0.272	0.318	0.374	0.436	0.511
x2 = 0.835	0.133	0.159	0.19	0.227	0.27	0.317	0.368	0.429	0.504	0.593

Nc1cccc2ccncc12 + CO + O
solubility (g/100 g solution)
Settings	278.15 K	283.15 K	288.15 K	293.15 K	298.15 K	303.15 K	308.15 K	313.15 K	318.15 K	323.15 K
x2 = 0.05881	0.0271	0.0315	0.0363	0.0431	0.0495	0.0576	0.0677	0.079	0.0916	0.107
x2 = 0.1233	0.0301	0.035	0.0406	0.0481	0.0556	0.0648	0.0763	0.0893	0.104	0.122
x2 = 0.1942	0.0368	0.0428	0.0497	0.0588	0.0681	0.0794	0.0937	0.11	0.128	0.15
x2 = 0.2727	0.0479	0.0557	0.0648	0.0762	0.0886	0.103	0.122	0.142	0.167	0.196
x2 = 0.3599	0.0644	0.0748	0.087	0.102	0.119	0.138	0.163	0.19	0.223	0.262
x2 = 0.4576	0.0845	0.0982	0.115	0.134	0.157	0.183	0.216	0.252	0.296	0.349
x2 = 0.5675	0.111	0.128	0.15	0.175	0.205	0.238	0.282	0.329	0.387	0.455
x2 = 0.6923	0.131	0.153	0.179	0.209	0.248	0.289	0.343	0.4	0.473	0.559
x2 = 0.835	0.144	0.167	0.201	0.239	0.286	0.34	0.399	0.461	0.542	0.644
